Consider one compound from patent publication US11896568B2, “Compositions and methods for treating patients suffering from glioma or leukemia” (University of Cincinnati, priority 2016, dated 2024).

The test system of experiment [1] is Primary AML cells with IDH mutations. In words: JQ1 sensitivity of primary AML cells. It counts as cell-based, human. The following applies: "often".
Experiment [2] relates to R-2HG-resistant leukemic cells. The experiment in a line: JQ1 with R-2HG in resistant leukemic cells, cell viability. Format: cell-based, human. Conditions: inhibition of MYC signaling by JQ1. The protocol:
Cell proliferation/viability, cell cycle and cell apoptosis assays. To study the effects of R-2HG, FTO, or IDH1^R132H on viability, the cells were seeded into 96-well plates at the concentration of 5,000-10,000 cells/well in triplicates and MTT (G4000, Promega) was used to assess cell proliferation and viability following the manufacturer's instructions. For cell cycle analysis, Propidium iodide (PI) DNA staining was used to assess the cells at G0/G1, S and G2/M phases, while Hoechst 33342 and Pyronin Y were used to determine the cells at G0, G1 and S/G2/M stages. For the PI staining, cells were resuspended in Krishan's reagent (0.05 mg/ml PI, 0.1% trisodium citrate, 0.02 mg/ml ribonuclease A, 0.3% NP-40), incubated at 37° C. for 30 minutes and then applied to the flow cytometer.; For Hoechst/Pyronin Y staining, the cells were suspended in cell culture medium, incubated at 37° C. for 45 minutes with existence of 10 ug/mL Hoechst 33342 and further incubated at 37° C. for 15 minutes with existence of Pyronin Y before flow cytometry. Cell apoptosis assay was conducted with FITC Annexin V Apoptosis Detection Kit I (BD Pharmingen) according to the manufacturer's instructions.

Each structure is given as a SMILES string.

Usually IC50 stands for the concentration that inhibits the measured activity by half. `Cc1sc2c(c1C)C(c1ccc(Cl)cc1)=N[C@@H](CC(=O)OC(C)(C)C)c1nnc(C)n1-2` [JQ1] returned an IC50 in experiment [1] below 1000 nM. For the same compound, in experiment [2], the “sensitivity of R-2HG-resistant leukemic cells to exogenous R-2HG or IDH1^R132H” value is “notably increased sensitivity”.
